Test results from patent publication US12209081B2 (Katholieke Universiteit Leuven, priority 2020, dated 2025).

target: mouse TRPM3α2 (mTRPM3) ion channel (Mus musculus (Mouse), UniProt J9SQF3); assay: TRPM3 ion channel driven Ca2+ uptake, Fluo-4 AM assay, mTRPM3alpha2 overexpressing flip-in HEK293 cells stimulated with pregnenolone sulfate; assay type: cell-based; conditions: PS 50 μM, cpds 200-299
Summary of the method: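 Flip-in HEK293 cells loaded with Fluo-4 AM were added to plates holding compound plus 50 μM pregnenolone sulfate in Ca2+-containing Krebs buffer. Fluorescence (ex 485/em 535 nm) read directly after cell addition; % inhibition relative to PS-stimulated vehicle and positive-control inhibitor.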

Sequence of mouse TRPM3α2 (mTRPM3) ion channel (J9SQF3 other isoform, or with tags, fused parts or gaps): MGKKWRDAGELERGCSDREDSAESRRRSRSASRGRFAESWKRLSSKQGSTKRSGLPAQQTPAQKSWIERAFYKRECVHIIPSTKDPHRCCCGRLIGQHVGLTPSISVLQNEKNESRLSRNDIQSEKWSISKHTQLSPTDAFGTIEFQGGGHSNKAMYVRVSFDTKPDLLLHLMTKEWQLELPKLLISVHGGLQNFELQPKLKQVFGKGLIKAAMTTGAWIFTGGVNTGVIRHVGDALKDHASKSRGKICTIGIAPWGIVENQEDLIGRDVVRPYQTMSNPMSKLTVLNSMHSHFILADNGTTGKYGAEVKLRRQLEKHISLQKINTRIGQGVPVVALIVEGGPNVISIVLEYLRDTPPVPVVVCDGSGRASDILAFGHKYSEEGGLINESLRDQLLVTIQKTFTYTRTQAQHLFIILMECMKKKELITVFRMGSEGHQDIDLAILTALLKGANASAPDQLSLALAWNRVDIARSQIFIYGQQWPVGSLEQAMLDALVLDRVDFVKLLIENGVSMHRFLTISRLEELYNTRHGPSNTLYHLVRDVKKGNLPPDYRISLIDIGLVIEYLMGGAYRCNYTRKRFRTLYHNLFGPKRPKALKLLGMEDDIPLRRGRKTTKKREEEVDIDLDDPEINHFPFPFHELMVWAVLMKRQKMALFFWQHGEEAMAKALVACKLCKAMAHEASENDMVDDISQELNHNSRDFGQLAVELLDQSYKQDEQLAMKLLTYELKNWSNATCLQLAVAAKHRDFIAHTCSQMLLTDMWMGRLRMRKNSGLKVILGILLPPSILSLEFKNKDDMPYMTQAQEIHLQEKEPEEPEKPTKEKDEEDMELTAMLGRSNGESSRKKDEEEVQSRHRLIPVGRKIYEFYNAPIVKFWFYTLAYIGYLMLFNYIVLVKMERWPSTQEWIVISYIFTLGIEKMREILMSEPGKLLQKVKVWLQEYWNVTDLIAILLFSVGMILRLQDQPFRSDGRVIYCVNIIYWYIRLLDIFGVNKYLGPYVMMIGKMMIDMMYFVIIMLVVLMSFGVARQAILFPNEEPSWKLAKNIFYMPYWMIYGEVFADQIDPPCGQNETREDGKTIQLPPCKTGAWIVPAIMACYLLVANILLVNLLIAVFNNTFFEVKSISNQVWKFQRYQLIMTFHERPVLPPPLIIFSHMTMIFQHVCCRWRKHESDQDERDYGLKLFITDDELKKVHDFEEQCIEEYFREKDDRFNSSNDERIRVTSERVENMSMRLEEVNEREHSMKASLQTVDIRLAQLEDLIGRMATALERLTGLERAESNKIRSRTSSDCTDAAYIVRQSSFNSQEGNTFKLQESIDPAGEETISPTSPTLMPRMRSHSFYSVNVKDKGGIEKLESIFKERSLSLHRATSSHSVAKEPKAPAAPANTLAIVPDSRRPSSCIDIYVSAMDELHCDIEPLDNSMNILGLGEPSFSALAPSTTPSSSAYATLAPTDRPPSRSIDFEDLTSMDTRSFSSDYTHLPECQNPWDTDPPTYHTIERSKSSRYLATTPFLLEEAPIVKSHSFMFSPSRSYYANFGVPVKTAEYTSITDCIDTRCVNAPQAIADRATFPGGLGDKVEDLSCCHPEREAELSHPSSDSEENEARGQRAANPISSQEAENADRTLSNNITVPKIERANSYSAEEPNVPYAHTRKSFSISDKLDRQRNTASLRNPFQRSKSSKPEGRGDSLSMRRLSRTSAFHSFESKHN

`Cc1ncsc1COc1ccc2oc(C)c(C(=O)N[C@H](C)C(N)=O)c2c1` [compound 271, (R)-N-(1-amino-1-oxopropan-2-yl)-2-methyl-5-((4-methylthiazol-5-yl)methoxy)benzofuran-3-carboxamide] and `Cc1cc(COc2ccc3oc(C)c(C(=O)N[C@@H](CO)C(N)=O)c3c2)no1` [compound 289, (S)-N-(1-amino-3-hydroxy-1-oxopropan-2-yl)-2-methyl-5-((5-methylisoxazol-3-yl)methoxy)benzofuran-3-carboxamide] cannot be ordered by IC50: < 1 µM for the first, < 1 µM for the second.

`CCOc1ncccc1COc1ccc2oc(C)c(C(=O)NC3CCNCC3(F)F)c2c1` (single isomer, unassigned) [cpd 207-En 1] and `Cc1oc2ccc(OCc3cccnc3C(F)(F)F)cc2c1C(=O)NC1(CO)CC1` [compound 200, N-(1-(hydroxymethyl)cyclopropyl)-2-methyl-5-((2-(trifluoromethyl)pyridin-3-yl)methoxy) -benzofuran-3-carboxamide] cannot be ordered by IC50: < 1 µM for the first, < 1 µM for the second.

`Cc1ccc(COc2ccc3oc(C)c(C(=O)N[C@@H](CO)C(N)=O)c3c2)cn1` [compound 291, (S)-N-(1-amino-3-hydroxy-1-oxopropan-2-yl)-2-methyl-5-((6-methylpyridin-3-yl)methoxy)benzofuran-3-carboxamide] was tested, and the IC50 was < 1 µM.

same assay, conditions: PS 50 μM, cpds 300-399

`Cc1oc2ccc(OCc3c(F)cnn3C)cc2c1C(=O)N[C@@H](CO)C(N)=O` [compound 302, (S)-N-(1-amino-3-hydroxy-1-oxopropan-2-yl)-5-((4-fluoro-1-methyl-1H-pyrazol-5-yl)methoxy) -2-methylbenzofuran-3-carboxamide] and `Cc1ncc(COc2ccc3oc(C)c(C(=O)N[C@H](C(N)=O)[C@@H](C)O)c3c2)s1` [compound 377, N-((2S,3R)-1-amino-3-hydroxy-1-oxobutan-2-yl)-2-methyl-5-((2-methylthiazol-5-yl)methoxy)benzofuran-3-carboxamide] cannot be ordered by IC50: < 1 µM for the first, < 1 µM for the second.

`Cc1ncsc1COc1ccc2oc(C)c(C(=O)NC(CO)C(F)(F)F)c2c1` (single isomer, unassigned) [cpd 316-En 1] and `Cc1ncsc1COc1ccc2oc(C(F)F)c(C(=O)NC3CCNCC3(F)F)c2c1` (single isomer, unassigned) [cpd 310-En 1] cannot be ordered by IC50: < 1 µM for the first, < 1 µM for the second.

Going from `Cc1oc2ccc(OCc3ccc(OCCO)cn3)cc2c1C(=O)NC1(CO)CCOCC1` [compound 358, 5-((5-(2-hydroxyethoxy)pyridin-2-yl)methoxy)-N-(4-(hydroxymethyl)tetrahydro-2H-pyran-4-yl) -2-methylbenzofuran-3-carboxamide] to `Cc1ncsc1COc1ccc2oc(C3CC3)c(C(=O)NC3(CO)CCOCC3)c2c1` [compound 314, 2-cyclopropyl-N-(4-(hydroxymethyl)tetrahydro-2H-pyran-4-yl)-5-((4-methylthiazol-5-yl)methoxy)benzofuran-3-carboxamide], the IC50 falls from > 20 µM to < 1 µM. The second is the more potent here.

`Cc1ncc(COc2ccc3oc(C)c(C(=O)NCC4(F)COC4)c3c2)s1` [compound 384, N-((3-fluorooxetan-3-yl)methyl)-2-methyl-5-((2-methylthiazol-5-yl)methoxy)benzofuran-3-carboxamide] and `Cc1oc2ccc(OCc3cccnc3OC(F)F)cc2c1C(=O)NC1CCNCC1(F)F` (single isomer, unassigned) [cpd 338-En 1] cannot be ordered by IC50: < 1 µM for the first, < 1 µM for the second.

`COc1ncccc1COc1ccc2oc(C)c(C(=O)NC3(CO)CCOCC3)c2c1F` [compound 330, 4-fluoro-N-(4-(hydroxymethyl)tetrahydro-2H-pyran-4-yl)-5-((2-methoxypyridin-3-yl)methoxy)-2-methylbenzofuran-3-carboxamide] was tested, and the IC50 was < 1 µM.

same assay, conditions: PS (50 μM) stimulated, cpd 001-199

Compared with `Cc1oc2ccc(OCC3CCNC3)cc2c1C(=O)O` (stereo not drawn) [compound 003, 2-methyl-5-(pyrrolidin-3-ylmethoxy)benzofuran-3-carboxylic acid], `Cc1oc2ccc(OCc3ccccn3)cc2c1C(=O)NC1CCNCC1(F)F` (stereo not drawn) [compound 048, N-(3,3-difluoropiperidin-4-yl)-2-methyl-5-(pyridin-2-ylmethoxy)benzofuran-3-carboxamide] is lower in IC50: > 20 µM for the first, < 1 µM for the second.

`Cc1ncsc1COc1ccc2oc(C)c(C(=O)NC3(CO)CCC3)c2c1` [compound 107, N-(1-(hydroxymethyl)cyclobutyl)-2-methyl-5-((4-methylthiazol-5-yl)methoxy)benzofuran-3-carboxamide] and `Cc1ncsc1COc1ccc2oc(C)c(C(=O)NC3(CO)CCOC3)c2c1` (single isomer, unassigned) [cpd 132-En 1] cannot be ordered by IC50: < 1 µM for the first, < 1 µM for the second.

`Cc1oc2ccc(OCc3cccnc3Cl)cc2c1C(=O)NC1CCNCC1(F)F` (stereo not drawn) [compound 067, 5-((2-chloropyridin-3-yl)methoxy)-N-(3,3-difluoropiperidin-4-yl)-2-methylbenzofuran-3-carboxamide] and `Cc1oc2ccc(OCc3cccnc3C(F)(F)F)c(F)c2c1C(=O)NC1CCNCC1(F)F` (single isomer, unassigned) [cpd 112-En 1, N-(3,3-difluoropiperidin-4-yl)-4-fluoro-2-methyl-5-((2-(trifluoromethyl)pyridin-3-yl)methoxy) -benzofuran-3-carboxamide] cannot be ordered by IC50: < 1 µM for the first, < 1 µM for the second.

`Cc1oc2ccc(OCc3cccnc3C(F)(F)F)cc2c1C(=O)NC1(CN(C)C)CCC1` [compound 140, N-(1-((dimethylamino)methyl)cyclobutyl)-2-methyl-5-((2-(trifluoromethyl)pyridin-3-yl)methoxy) -benzofuran-3-carboxamide] and `Cc1oc2ccc(OCc3cccnc3C(F)(F)F)cc2c1C(=O)NC(C)(C)CO` [compound 109, N-(1-hydroxy-2-methylpropan-2-yl)-2-methyl-5-((2-(trifluoromethyl)pyridin-3-yl)methoxy)benzofuran-3-carboxamide] cannot be ordered by IC50: < 1 µM for the first, < 1 µM for the second.

same assay, conditions: PS (50 μM) stimulated, cpds. 400-499

`Cc1oc2ccc(OCc3ccccn3)cc2c1C(=O)N[C@@H](C)CO` [compound 492, (S)-N-(1-hydroxypropan-2-yl)-2-methyl-5-(pyridin-2-ylmethoxy)benzofuran-3-carboxamide] and `Cc1ncsc1COc1ccc2oc(C)c(C(=O)NC(CO)C(N)=O)c2c1` (stereo not drawn) [compound 454, N-(1-amino-3-hydroxy-1-oxopropan-2-yl)-2-methyl-5-((4-methylthiazol-5-yl)methoxy)benzofuran-3-carboxamide] cannot be ordered by IC50: < 1 µM for the first, < 1 µM for the second.

First: Cc1ncsc1COc1ccc2oc(C)c(C(=O)NC3(C(N)=O)CC(F)(F)C3)c2c1 [compound 470, N-(1-carbamoyl-3,3-difluorocyclobutyl)-2-methyl-5-((4-methylthiazol-5-yl)methoxy)benzofuran-3-carboxamide]
Second: Cc1ncc(COc2ccc3oc(C)c(C(=O)NC(Cn4cncn4)C(N)=O)c3c2)s1 (single isomer, unassigned) [432-En 1, N-(1-amino-1-oxo-3-(1H-1,2,4-triazol-1-yl)propan-2-yl)-2-methyl-5-((2-methylthiazol-5-yl)methoxy)benzofuran-3-carboxamide]
The IC50 of the first is lower: < 1 µM for the first, 1 to 20 µM for the second.

same assay, conditions: PS (50 μM) stimulated, cpds. 500-599

`Cc1oc2ccc(OCc3ccccn3)cc2c1C(=O)NC1(CO)CCOC1` (single isomer, unassigned) [cpd 534-En 1] and `Cc1ncsc1COc1ccc2oc(C)c(C(=O)NC3(CO)CCCOC3)c2c1` (single isomer, unassigned) [cpd 532-En 1] cannot be ordered by IC50: < 1 µM for the first, < 1 µM for the second.

First: Cc1cnc(COc2ccc3oc(C)c(C(=O)NC4CCNCC4(F)F)c3c2)cn1 (single isomer, unassigned) [cpd 554-En 2]
Second: Cc1ccc(COc2ccc3oc(C)c(C(=O)NC4CCNCC4(F)F)c3c2)nn1 (single isomer, unassigned) [cpd 556-En 1]
The IC50 of the first is higher: > 20 µM for the first, 1 to 20 µM for the second.

Compared with `Cc1ncsc1COc1ccc2oc(C(F)F)c(C(=O)NC3(C(N)=O)COC3)c2c1` [compound 577, N-(3-carbamoyloxetan-3-yl)-2-(difluoromethyl)-5-((4-methylthiazol-5-yl)methoxy)benzofuran-3-carboxamide], `Cc1oc2ccc(OCc3ncn(C)n3)cc2c1C(=O)NC1CCNCC1(F)F` (single isomer, unassigned) [cpd 542-En 2] is higher in IC50: < 1 µM for the first, > 20 µM for the second. The first is the more potent here.

For `Cc1oc2ccc(OCc3cccnc3C(F)(F)F)cc2c1C(=O)NC1CCNCC1(F)F` (single isomer, unassigned) [cpd 539-En 2], the IC50 was < 1 µM.

same assay, conditions: PS (50 μM) stimulated, cpds. 608-666

`Cc1oc2ccc(OCc3nccn3C)cc2c1C(=O)NC1CNCCC1(F)F` (single isomer, unassigned) [cpd 635-En 1] and `Cc1oc2ccc(OCc3ccnn3C)cc2c1C(=O)NC1(CO)CCOCC1` [compound 608, N-(4-(hydroxymethyl)tetrahydro-2H-pyran-4-yl)-2-methyl-5-((1-methyl-1H-pyrazol-5-yl)methoxy)benzofuran-3-carboxamide] cannot be ordered by IC50: < 1 µM for the first, < 1 µM for the second.

`Cc1ncccc1COc1ccc2oc(C)c(C(=O)NC3(CO)CCOCC3)c2c1` [compound 611, N-(4-(hydroxymethyl)tetrahydro-2H-pyran-4-yl)-2-methyl-5-((2-methylpyridin-3-yl)methoxy)benzofuran-3-carboxamide] and `Cc1cc(COc2ccc3oc(C)c(C(=O)NC4(CO)CCOCC4)c3c2)no1` [compound 618, N-(4-(hydroxymethyl)tetrahydro-2H-pyran-4-yl)-2-methyl-5-((5-methylisoxazol-3-yl)methoxy)benzofuran-3-carboxamide] cannot be ordered by IC50: < 1 µM for the first, < 1 µM for the second.

same assay, conditions: PS (50 μM) stimulated, cpds. 667-751

`Cc1oc2ccc(OCc3cccnc3C3CC3)cc2c1C(=O)N[C@@H](CO)C(N)=O` [compound 702, (S)-N-(1-Amino-3-hydroxy-1-oxopropan-2-yl)-5-((2-cyclopropylpyridin-3-yl)methoxy)-2-methylbenzofuran-3-carboxamide] and `Cc1oc2ccc(OCc3ncccc3C(F)F)cc2c1C(=O)NC1CCNCC1(F)F` (stereo not drawn) [compound 717, 5-((3-(Difluoromethyl)pyridin-2-yl)methoxy)-N-(3,3-difluoropiperidin-4-yl)-2-methylbenzofuran-3-carboxamide] cannot be ordered by IC50: < 1 µM for the first, < 1 µM for the second.
